This passage reports IC50 results from US20250388553A1 (Incyte Corporation, priority 2018, published 2025).

Structures can show the parent of a compound that is named as a salt. Where two headings read alike, the source gives them in different places.

In general, IC50 refers to the midpoint of a concentration-inhibition curve.

Assay [1] deals with PI3Kγ (p110γ) Recombinant Human Protein (Homo sapiens (Human), UniProt P48736). Description: PI3K-γ scintillation proximity assay. The format is biochemical.
Chain of PI3Kγ (p110γ) Recombinant Human Protein (P48736 whole entry): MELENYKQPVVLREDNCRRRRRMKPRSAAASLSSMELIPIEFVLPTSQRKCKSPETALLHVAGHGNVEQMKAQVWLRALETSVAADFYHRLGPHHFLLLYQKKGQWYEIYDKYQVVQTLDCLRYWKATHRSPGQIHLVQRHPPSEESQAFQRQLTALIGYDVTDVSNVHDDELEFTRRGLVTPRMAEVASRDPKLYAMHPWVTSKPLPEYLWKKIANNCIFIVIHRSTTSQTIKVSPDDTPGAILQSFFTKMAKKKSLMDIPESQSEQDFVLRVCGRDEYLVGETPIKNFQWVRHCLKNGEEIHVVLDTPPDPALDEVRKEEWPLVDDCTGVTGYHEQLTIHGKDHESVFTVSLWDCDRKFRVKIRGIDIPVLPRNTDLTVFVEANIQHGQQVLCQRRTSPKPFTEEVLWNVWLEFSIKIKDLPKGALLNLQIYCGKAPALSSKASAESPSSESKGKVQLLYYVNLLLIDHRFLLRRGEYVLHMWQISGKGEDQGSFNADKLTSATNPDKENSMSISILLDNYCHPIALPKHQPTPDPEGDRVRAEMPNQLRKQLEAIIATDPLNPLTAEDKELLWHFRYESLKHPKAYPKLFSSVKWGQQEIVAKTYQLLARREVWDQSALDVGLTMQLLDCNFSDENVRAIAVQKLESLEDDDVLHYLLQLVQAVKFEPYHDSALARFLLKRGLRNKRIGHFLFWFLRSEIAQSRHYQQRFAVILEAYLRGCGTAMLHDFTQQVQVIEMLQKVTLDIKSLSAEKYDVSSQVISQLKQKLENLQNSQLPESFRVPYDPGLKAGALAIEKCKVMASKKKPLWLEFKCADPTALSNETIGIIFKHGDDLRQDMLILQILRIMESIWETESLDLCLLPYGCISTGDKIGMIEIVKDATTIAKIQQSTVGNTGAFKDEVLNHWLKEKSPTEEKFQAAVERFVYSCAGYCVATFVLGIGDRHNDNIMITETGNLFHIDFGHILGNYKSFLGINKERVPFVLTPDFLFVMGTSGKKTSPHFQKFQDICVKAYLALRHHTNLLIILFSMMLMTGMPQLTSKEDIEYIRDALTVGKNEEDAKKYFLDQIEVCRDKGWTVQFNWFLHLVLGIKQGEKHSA
Assay [2] addresses PI3Kδ (p1106/p85a) Recombinant Human Protein (Homo sapiens (Human), UniProt O00329). Description: PI3Kδ scintillation proximity assay. The assay is classed as biochemical. Background: Scintillation proximity formats need no separation of bound from free tracer.
Setting [3] is: Table A3, scintillation proximity assay, recombinant human p110γ.
Setting [4] is: Table A3, scintillation proximity assay, recombinant human PI3Kδ.
[5] abbreviates: Table A4, scintillation proximity assay, recombinant human p110γ.
The mark [6] stands for this setting: Table A4, scintillation proximity assay, recombinant human PI3Kδ.

Chain of PI3Kδ (p1106/p85a) Recombinant Human Protein (O00329 whole entry): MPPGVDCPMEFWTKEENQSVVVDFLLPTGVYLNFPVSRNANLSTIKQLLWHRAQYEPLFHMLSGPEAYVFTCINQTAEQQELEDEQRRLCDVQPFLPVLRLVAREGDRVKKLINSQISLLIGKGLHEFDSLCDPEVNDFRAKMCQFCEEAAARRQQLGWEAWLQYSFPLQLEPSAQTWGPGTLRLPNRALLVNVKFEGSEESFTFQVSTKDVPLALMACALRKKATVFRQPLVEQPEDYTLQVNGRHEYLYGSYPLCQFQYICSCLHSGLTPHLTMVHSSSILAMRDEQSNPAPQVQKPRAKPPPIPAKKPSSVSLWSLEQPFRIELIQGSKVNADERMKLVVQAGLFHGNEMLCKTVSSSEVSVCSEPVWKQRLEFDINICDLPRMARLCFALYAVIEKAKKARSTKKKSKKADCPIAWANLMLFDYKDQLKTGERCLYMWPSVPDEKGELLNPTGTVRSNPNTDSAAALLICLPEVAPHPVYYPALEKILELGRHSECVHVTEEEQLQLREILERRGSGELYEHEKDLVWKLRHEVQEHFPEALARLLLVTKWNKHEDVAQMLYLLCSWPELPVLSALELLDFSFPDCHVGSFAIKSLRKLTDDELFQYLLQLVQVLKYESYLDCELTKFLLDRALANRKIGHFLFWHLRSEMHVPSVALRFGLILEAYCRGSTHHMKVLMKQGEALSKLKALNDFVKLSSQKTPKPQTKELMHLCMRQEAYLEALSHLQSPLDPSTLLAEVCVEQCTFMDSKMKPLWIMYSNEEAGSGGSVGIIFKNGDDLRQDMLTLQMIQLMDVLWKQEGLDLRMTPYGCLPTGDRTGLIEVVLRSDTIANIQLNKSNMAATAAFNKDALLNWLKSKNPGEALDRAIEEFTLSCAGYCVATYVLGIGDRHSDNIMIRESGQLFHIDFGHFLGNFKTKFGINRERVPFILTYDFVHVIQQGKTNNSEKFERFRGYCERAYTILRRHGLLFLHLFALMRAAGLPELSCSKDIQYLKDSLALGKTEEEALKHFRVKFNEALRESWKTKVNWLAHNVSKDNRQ
Chain of PI3Kδ (p1106/p85a) Recombinant Human Protein (P27986 whole entry partner): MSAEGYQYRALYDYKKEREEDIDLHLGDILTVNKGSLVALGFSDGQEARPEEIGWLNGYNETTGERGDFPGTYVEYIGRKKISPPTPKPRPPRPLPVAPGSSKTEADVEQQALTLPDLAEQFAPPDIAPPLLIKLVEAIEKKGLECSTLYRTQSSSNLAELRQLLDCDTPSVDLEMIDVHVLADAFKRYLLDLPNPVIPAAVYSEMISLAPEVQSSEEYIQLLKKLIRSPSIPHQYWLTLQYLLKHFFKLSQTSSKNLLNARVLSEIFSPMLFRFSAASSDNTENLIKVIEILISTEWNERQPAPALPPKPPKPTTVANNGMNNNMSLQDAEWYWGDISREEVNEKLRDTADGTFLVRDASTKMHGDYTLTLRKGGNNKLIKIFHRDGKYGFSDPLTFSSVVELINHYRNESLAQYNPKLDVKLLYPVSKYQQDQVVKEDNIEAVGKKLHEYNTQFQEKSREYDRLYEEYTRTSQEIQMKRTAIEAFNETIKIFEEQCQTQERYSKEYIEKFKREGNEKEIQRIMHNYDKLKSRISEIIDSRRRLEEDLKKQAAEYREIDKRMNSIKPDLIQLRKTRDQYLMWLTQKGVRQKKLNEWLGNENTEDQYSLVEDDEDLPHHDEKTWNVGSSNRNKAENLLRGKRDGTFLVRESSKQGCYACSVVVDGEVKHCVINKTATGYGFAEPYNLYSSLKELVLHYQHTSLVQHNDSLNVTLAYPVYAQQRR

Consider `Cc1ccc(C(O)(C(N)=O)C(F)(F)F)cc1-c1cnc(N)c(-n2cccn2)n1` (centres unmarked) [Example 93, 2-(3-(5-Amino-6-(1H-pyrazol-1-yl)pyrazin-2-yl)-4-methylphenyl)-3,3,3-trifluoro-2-hydroxypropanamide], for which the 50% inhibitory concentration (IC50) in assay [1] (setting [3]) and in assay [2] (setting [4]) was below 100 nM in each case.
For the compound `CNC(=O)C(O)(c1ccc(C)c(-c2cnc(N)c(-n3cncn3)n2)c1)C(F)(F)F` (centres unmarked) [Example 94, 2-(3-(5-Amino-6-(1H-1,2,4-triazol-1-yl)pyrazin-2-yl)-4-methylphenyl)-3,3,3-trifluoro-2-hydroxy-N-methylpropanamide trifluoroacetate], the 50% inhibitory concentration (IC50) in assay [1] (setting [3]) and in assay [2] (setting [4]) was below 100 nM throughout.
For `Cc1ccc(C(O)(C(=O)N(C)C)C(F)(F)F)cc1-c1cnc(N)c(-n2cncn2)n1` (centres unmarked) [Example 95, 2-(3-(5-Amino-6-(1H-1,2,4-triazol-1-yl)pyrazin-2-yl)-4-methylphenyl)-3,3,3-trifluoro-2-hydroxy-N,N-dimethylpropanamide trifluoroacetate], the IC50 in assay [1] (setting [3]) and in assay [2] (setting [4]) was 100 to 500 nM in each case.
As for `CNC(=O)C(O)(c1ccc(C)c(-c2cnc(N)c(-c3cnn(C)c3)n2)c1)C(F)(F)F` (centres unmarked) [Example 96, 2-(3-(5-Amino-6-(1-methyl-1H-pyrazol-4-yl)pyrazin-2-yl)-4-methylphenyl)-3,3,3-trifluoro-2-hydroxy-N-methylpropanamide], the results for the IC50 in assay [1] (setting [3]) and in assay [2] (setting [4]) were below 100 nM and 100 to 500 nM, respectively.
For the compound `Cc1ccc(C(O)(C(N)=O)C(F)F)cc1-c1cnc(N)c(-c2ccnn2C)n1` (centres unmarked) [Example 98, 2-(3-(5-Amino-6-(1-methyl-1H-pyrazol-5-yl)pyrazin-2-yl)-4-methylphenyl)-3,3-difluoro-2-hydroxypropanamide], the IC50 in assay [1] (setting [3]) and in assay [2] (setting [4]) was below 100 nM throughout.
For `Cc1ncc(-c2nc(-c3cc(C(O)(C(N)=O)C(F)F)ccc3C)cnc2N)o1` (centres unmarked) [Example 100, 2-(3-(5-amino-6-(2-methyloxazol-5-yl)pyrazin-2-yl)-4-methylphenyl)-3,3-difluoro-2-hydroxypropanamide], the half-inhibitory concentration (IC50) in assay [1] (setting [3]) and in assay [2] (setting [4]) was below 100 nM in each case.
Turning to `Cc1ccc(C(O)(C(N)=O)C(F)F)cc1-c1cnc(N)c(-c2cnn(C)n2)n1` (centres unmarked) [Example 101, 2-(3-(5-amino-6-(2-methyl-2H-1,2,3-triazol-4-yl)pyrazin-2-yl)-4-methylphenyl)-3,3-difluoro-2-hydroxypropanamide], the IC50 in assay [1] (setting [3]) and in assay [2] (setting [4]) was below 100 nM each time.
On to `Cc1ccc(C(O)(CNC=O)C(F)(F)F)cc1-c1cnc(N)c(-c2cnc(C3CC3)s2)n1` (centres unmarked) [Example 102, N-(2-(3-(5-amino-6-(2-cyclopropylthiazol-5-yl)pyrazin-2-yl)-4-methylphenyl)-3,3,3-trifluoro-2-hydroxypropyl)formamide trifluoroacetate], for which the IC50 in assay [1] (setting [3]) and in assay [2] (setting [4]) was below 100 nM in each case.
Take `CC(=O)NCC(O)(c1ccc(C)c(-c2cnc(N)c(-c3cnn(CC(F)(F)F)c3)n2)c1)C(F)(F)F` (centres unmarked) [Example 104, N-(2-(3-(5-amino-6-(1-(2,2,2-trifluoroethyl)-1H-pyrazol-4-yl)pyrazin-2-yl)-4-methylphenyl)-3,3,3-trifluoro-2-hydroxypropyl)acetamide trifluoroacetate]: the IC50 in assay [1] (setting [3]) and in assay [2] (setting [4]) was below 100 nM in each case.
Take `CC(=O)NCC(O)(c1ccc(C)c(-c2cnc(N)c(-c3cn[nH]c3)n2)c1)C(F)(F)F` (centres unmarked) [Example 105, N-(2-(3-(5-amino-6-(1H-pyrazol-4-yl)pyrazin-2-yl)-4-methylphenyl)-3,3,3-trifluoro-2-hydroxypropyl)acetamide trifluoroacetate]: the half-maximal inhibitory concentration (IC50) in assay [1] (setting [3]) and in assay [2] (setting [4]) was below 100 nM each time.
In the case of `Cc1ccc(C(O)(C(N)=O)C(F)(F)F)cc1-c1cnc(N)c(C(=O)Nc2ccnn2C)n1` (centres unmarked) [Example 106, 3-amino-6-(5-(3-amino-1,1,1-trifluoro-2-hydroxy-3-oxopropan-2-yl)-2-methylphenyl)-N-(1-methyl-1H-pyrazol-5-yl)pyrazine-2-carboxamide trifluoroacetate], the IC50 in assay [1] (setting [3]) and in assay [2] (setting [4]) was below 100 nM each time.
With `CC(=O)N1CCN(c2nc(-c3cc(C(O)(C(N)=O)C(F)(F)F)ccc3C)cnc2N)CC1` (centres unmarked) [Example 114, 2-(3-(6-(4-acetylpiperazin-1-yl)-5-aminopyrazin-2-yl)-4-methylphenyl)-3,3,3-trifluoro-2-hydroxypropanamide trifluoroacetate], the IC50 in assay [1] (setting [5]) and in assay [2] (setting [6]) was below 100 nM throughout.
Take `Cc1ccc([C@@](O)(C(N)=O)C(F)(F)F)cc1-c1cnc(N)c(N2CCN(C(=O)C3CC3)CC2)n1` [Example 115, (R)-2-(3-(5-amino-6-(4-(cyclopropanecarbonyl)piperazin-1-yl)pyrazin-2-yl)-4-methylphenyl)-3,3,3-trifluoro-2-hydroxypropanamide trifluoroacetate]: the IC50 in assay [1] (setting [5]) and in assay [2] (setting [6]) was below 100 nM in each case.
As for `Cc1ccc(C(O)(C(N)=O)C(F)(F)F)cc1-c1cnc(N)c(N2CCN(c3ccccc3)CC2)n1` (centres unmarked) [Example 116, 2-(3-(5-amino-6-(4-phenylpiperazin-1-yl)pyrazin-2-yl)-4-methylphenyl)-3,3,3-trifluoro-2-hydroxypropanamide trifluoroacetate], the results for the IC50 in assay [1] (setting [5]) and in assay [2] (setting [6]) were below 100 nM and 100 to 500 nM, respectively.
With `Cc1ccc(C(O)(C(N)=O)C(F)(F)F)cc1-c1cnc(N)c(N2CCN(c3ccccn3)CC2)n1` (centres unmarked) [Example 117, 2-(3-(5-amino-6-(4-(pyridin-2-yl)piperazin-1-yl)pyrazin-2-yl)-4-methylphenyl)-3,3,3-trifluoro-2-hydroxypropanamide trifluoroacetate], the IC50 in assay [1] and in assay [2] was below 100 nM in each case.
As for `Cc1ccc(C)c(N2CCN(c3nc(-c4cc(C(O)(C(N)=O)C(F)(F)F)ccc4C)cnc3N)CC2)c1` (centres unmarked) [Example 119, 2-(3-(5-amino-6-(4-(2,5-dimethylphenyl)piperazin-1-yl)pyrazin-2-yl)-4-methylphenyl)-3,3,3-trifluoro-2-hydroxypropanamide trifluoroacetate], the half-inhibitory concentration (IC50) is below 100 nM in assay [1] (setting [5]) and 100 to 500 nM in assay [2] (setting [6]).
Taken in the same sequence, the figures for `Cc1ccc(C(O)(C(N)=O)C(F)(F)F)cc1-c1cnc(N)c(N2CCN(c3cncs3)CC2)n1` (centres unmarked) [Example 120, 2-(3-(5-amino-6-(4-(thiazol-5-yl)piperazin-1-yl)pyrazin-2-yl)-4-methylphenyl)-3,3,3-trifluoro-2-hydroxypropanamide trifluoroacetate] were below 100 nM and below 100 nM.
On to `Cc1ccc(C(O)(C(N)=O)C(F)(F)F)cc1-c1cnc(N)c(N2CCN(c3cccc(C(F)(F)F)c3)CC2)n1` (centres unmarked) [Example 121, 2-(3-(5-amino-6-(4-(3-(trifluoromethyl)phenyl)piperazin-1-yl)pyrazin-2-yl)-4-methylphenyl)-3,3,3-trifluoro-2-hydroxypropanamide trifluoroacetate], for which the values for the IC50 in assay [1] (setting [5]) and in assay [2] (setting [6]) were below 100 nM and 100 to 500 nM, respectively.
With `Cc1ccc(C(O)(C(N)=O)C(F)(F)F)cc1-c1cnc(N)c(N2CCN(c3ccccc3C#N)CC2)n1` (centres unmarked) [Example 122, 2-(3-(5-amino-6-(4-(2-cyanophcnyl)piperazin-1-yl)pyrazin-2-yl)-4-methylphenyl)-3,3,3-trifluoro-2-hydroxypropanamide trifluoroacetate], the 50% inhibitory concentration (IC50) in assay [1] (setting [5]) and in assay [2] (setting [6]) was below 100 nM throughout.
In the case of `Cc1ccc(C(O)(C(N)=O)C(F)(F)F)cc1-c1cnc(N)c(N2CCN3C(=O)CCC3C2)n1` (centres unmarked) [Example 126, 2-(3-(5-amino-6-(6-oxohexahydropyrrolo[1,2-a]pyrazin-2(1H)-yl)pyrazin-2-yl)-4-methylphenyl)-3,3,3-trifluoro-2-hydroxypropanamide trifluoroacetate], the IC50 in assay [1] (setting [5]) and in assay [2] (setting [6]) was below 100 nM each time.
On to `Cc1ccc(C(O)(C(N)=O)C(F)(F)F)cc1-c1cnc(N)c(N2CCN(C(=O)c3ccco3)CC2)n1` (centres unmarked) [Example 127, 2-(3-(5-amino-6-(4-(furan-2-carbonyl)piperazin-1-yl)pyrazin-2-yl)-4-methylphenyl)-3,3,3-trifluoro-2-hydroxypropanamide trifluoroacetate], for which the half-inhibitory concentration (IC50) in assay [1] and in assay [2] was below 100 nM throughout.
`Cc1ccc(C(O)(C(N)=O)C(F)(F)F)cc1-c1cnc(N)c(N2CCN(c3nccnc3C#N)CC2)n1` (centres unmarked) [Example 128, 2-(3-(5-amino-6-(4-(3-cyanopyrazin-2-yl)piperazin-1-yl)pyrazin-2-yl)-4-methylphenyl)-3,3,3-trifluoro-2-hydroxypropanamide trifluoroacetate]: the IC50 in assay [1] (setting [5]) and in assay [2] (setting [6]) was below 100 nM in each case.
